PMC10997755, “Discovery of a small-molecule inhibitor that traps Polθ on DNA and synergizes with PARP inhibitors” (Nature Communications, 2024)
Several values for one entry are separate records, joined by “and”; a condition that tells them apart may be missing. Identical values can stand only once.

What was measured:
Polθ-pol = biological target: T1, Polθ-pol (Homo sapiens, UniProt O75417); test: Cy5 fluorescence Polθ-pol DNA synthesis (strand displacement) IC50 assay; format: biochemical; details: Polθ-pol DNA synthesis, Cy5 fluorescence
T1 construct: purified recombinant human Polθ-pol (comprising amino acid residues 1792–2590); made in house
T1 sequence (O75417 1792-2590): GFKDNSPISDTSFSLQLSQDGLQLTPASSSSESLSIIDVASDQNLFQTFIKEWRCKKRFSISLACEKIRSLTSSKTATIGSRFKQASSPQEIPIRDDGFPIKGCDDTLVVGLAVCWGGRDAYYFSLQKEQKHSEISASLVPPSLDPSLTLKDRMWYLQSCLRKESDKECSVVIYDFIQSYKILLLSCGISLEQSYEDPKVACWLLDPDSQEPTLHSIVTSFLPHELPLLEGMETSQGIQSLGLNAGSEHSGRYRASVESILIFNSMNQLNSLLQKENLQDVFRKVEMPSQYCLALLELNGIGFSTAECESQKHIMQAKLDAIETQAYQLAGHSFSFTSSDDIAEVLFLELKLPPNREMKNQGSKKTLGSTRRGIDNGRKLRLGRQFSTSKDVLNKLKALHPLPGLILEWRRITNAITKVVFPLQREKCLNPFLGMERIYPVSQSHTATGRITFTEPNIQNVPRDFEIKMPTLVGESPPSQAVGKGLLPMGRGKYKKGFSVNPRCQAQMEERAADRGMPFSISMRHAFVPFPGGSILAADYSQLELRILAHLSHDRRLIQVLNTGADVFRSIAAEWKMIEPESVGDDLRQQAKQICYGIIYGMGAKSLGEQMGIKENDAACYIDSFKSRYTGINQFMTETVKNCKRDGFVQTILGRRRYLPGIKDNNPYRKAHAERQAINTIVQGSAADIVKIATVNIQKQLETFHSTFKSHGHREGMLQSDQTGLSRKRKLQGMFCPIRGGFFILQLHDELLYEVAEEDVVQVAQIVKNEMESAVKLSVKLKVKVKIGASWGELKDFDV
How it was run: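 Recombinant human Polθ-pol (aa 1792–2590, 5 nM) extends 60 nM Cy5/quencher primer-template with 50 uM dNTPs in 25 mM Tris pH 7.8, 10 mM MgCl2, 2.5% DMSO at 37 °C. After 18 min, stopped with 20 mM EDTA; Cy5 fluorescence read, 7-point series in triplicate, inhibition from the mean.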

DLD1 Parental cells = test: Clonogenic assay; format: cell-based; details: for Normalized colonies (0 micro M = 100): per experiment
How it was run: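 Colony formation by BRCA-deficient, PALB2-mutant and wild-type cells (300–1000 cells/well) and MEFs (300 cells/well) over 10–12 days, medium changed every 2 days. Colonies fixed, stained with 0.5% crystal violet and counted; IC50 from 3 or more independent experiments.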

LogP = format: physicochemical; details: method not stated
DLD1 BRCA2 -/- cells = test: Clonogenic assay; format: cell-based; details: for Average number of colonies counted / Normalized colonies (0 micro M = 100): per experiment
How it was run: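 Cells seeded at low density (300–1000 per well, by plate size and genotype), medium changed every 2 days, colonies grown 10–12 days. Fixed in water:ethanol:acetic acid, stained with 0.5% crystal violet, then counted; IC50 from ≥3 independent experiments, mean ± SEM.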

CN(C(=O)Oc1c(N2CCN(CCO)C2=O)cc(C(F)(F)F)cc1C(F)(F)F)c1ccc(F)cc1 [RTx-161]
IC50 (Polθ-pol): 4.1 nM and 4 to 6 nM
effect in BRCA2-WT cells (DLD1 Parental cells; DLD1, colony survival): little to no effect
Normalized colonies, pooled Average of 3 experiments (DLD1 Parental cells; RTX-161 0.185 micro M): 97.5686%
Normalized colonies (0 micro M = 100) (DLD1 Parental cells; RTX-161 0.185 micro M): 97.878% and 98.6301% and 96.1977%
Normalized colonies, pooled Average of 3 experiments (DLD1 Parental cells; RTX-161 0.555 micro M): 95.8582%
Normalized colonies (0 micro M = 100) (DLD1 Parental cells; RTX-161 0.555 micro M): 95.8175% and 96.5517% and 95.2055%
Normalized colonies, pooled Average of 3 experiments (DLD1 Parental cells; RTX-161 1.67 micro M): 94.2875%
Normalized colonies (0 micro M = 100) (DLD1 Parental cells; RTX-161 1.67 micro M): 93.5361% and 95.4907% and 93.8356%
Normalized colonies, pooled Average of 3 experiments (DLD1 Parental cells; RTX-161 5 micro M): 93.9179%
Normalized colonies (0 micro M = 100) (DLD1 Parental cells; RTX-161 5 micro M): 93.1559% and 96.817% and 91.7808%
Normalized colonies, pooled Average of 3 experiments (DLD1 Parental cells; RTX-161 15 micro M): 93.9599%
Normalized colonies (0 micro M = 100) (DLD1 Parental cells; RTX-161 15 micro M): 90.8745% and 94.4297% and 96.5753%
logP (LogP): 3.6
IC50 (DLD1 BRCA2 -/- cells; Homo sapiens, DLD-1, read-out: IC50 clonogenic survival): ~1000 nM
Normalized colonies, pooled Average of 3 experiments (DLD1 BRCA2 -/- cells; RTX-161 0.185 micro M): 84.318%
Average number of colonies counted (DLD1 BRCA2 -/- cells; RTX-161 0.185 micro M): 67.3333 and 120 and 63.3333
Normalized colonies (0 micro M = 100) (DLD1 BRCA2 -/- cells; RTX-161 0.185 micro M): 74.5387% and 90.4523% and 87.963%
Normalized colonies, pooled Average of 3 experiments (DLD1 BRCA2 -/- cells; RTX-161 0.555 micro M): 72.4221%
Average number of colonies counted (DLD1 BRCA2 -/- cells; RTX-161 0.555 micro M): 58.6667 and 97.6667 and 56.6667
Normalized colonies (0 micro M = 100) (DLD1 BRCA2 -/- cells; RTX-161 0.555 micro M): 64.9446% and 73.6181% and 78.7037%
Normalized colonies, pooled Average of 3 experiments (DLD1 BRCA2 -/- cells; RTX-161 1.67 micro M): 40.9897%
Average number of colonies counted (DLD1 BRCA2 -/- cells; RTX-161 1.67 micro M): 28.3333 and 49.6667 and 39
Normalized colonies (0 micro M = 100) (DLD1 BRCA2 -/- cells; RTX-161 1.67 micro M): 31.3653% and 37.4372% and 54.1667%
Normalized colonies, pooled Average of 3 experiments (DLD1 BRCA2 -/- cells; RTX-161 5 micro M): 19.5991%
Average number of colonies counted (DLD1 BRCA2 -/- cells; RTX-161 5 micro M): 11.6667 and 20.3333 and 22
Normalized colonies, pooled Average of 3 experiments (DLD1 BRCA2 -/- cells; RTX-161 15 micro M): 11.8019%
selective killing / synthetic lethality in BRCA2-null DLD1 cells (DLD1 BRCA2 -/- cells; colony survival, versus BRCA2-WT): selective killing
